Laboratory results reported in PubChem BioAssay AID328 (DTP/NCI, 2004).
Values joined by “and” are separate entries in the source; they are usually repeats but may differ in a detail not shown here. Identical values can stand only once. Inconclusive results and toxic doses are left out.

Tested on: BDF1 mice, P388 leukemia ip, median survival T/C
Assay: NCI In Vivo Anticancer Drug Screen. Data for tumor model P388 Leukemia (intraperitoneal) in B6D2F1 (BDF1) mice
Conditions: endpoint: median survival time, higher = longer survival
Method in brief: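 Antitumour effect was judged in vivo: survival in drug-treated mice, normalised to that of vehicle-dosed controls, gives the reported T/C.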

[1] = dose: 100.0 mg/kg/injection, schedule: Q01DX009 (ip), vehicle: saline with Tween-80
[2] = dose: 200.0 mg/kg/injection, schedule: Q01DX009 (ip), vehicle: saline with Tween-80
[3] = dose: 25.0 mg/kg/injection, schedule: Q04DX003 (ip), vehicle: saline
[4] = dose: 50.0 mg/kg/injection, schedule: Q04DX003 (ip), vehicle: saline
[5] = dose: 100.0 mg/kg/injection, schedule: Q04DX003 (ip), vehicle: saline
[6] = dose: 50.0 mg/kg/injection, schedule: Q01DX005 (ip), vehicle: saline with Tween-80
[7] = dose: 100.0 mg/kg/injection, schedule: Q01DX005 (ip), vehicle: saline with Tween-80
[8] = dose: 200.0 mg/kg/injection, schedule: Q01DX005 (ip), vehicle: saline with Tween-80
[9] = dose: 50.0 mg/kg/injection, schedule: Q01DX009 (ip), vehicle: saline with Tween-80
[10] = dose: 12.5 mg/kg/injection, schedule: Q01DX009 (ip), vehicle: saline
[11] = dose: 25.0 mg/kg/injection, schedule: Q01DX009 (ip), vehicle: saline
[12] = dose: 50.0 mg/kg/injection, schedule: Q01DX009 (ip), vehicle: saline

Clc1ccc(CSc2ncnc3nc[nH]c23)cc1
T/C [1]: 100 % of control | T/C [2]: 104 % of control

Cc1ccc(N2CCOC2=O)cc1N1CCOC1=O
T/C (dose: 25.0 mg/kg/injection, schedule: Q01DX009 (ip), vehicle: other): 100 % of control | T/C (dose: 25.0 mg/kg/injection, schedule: Q04DX003 (ip), vehicle: other): 109 % of control | T/C (dose: 50.0 mg/kg/injection, schedule: Q01DX009 (ip), vehicle: other): 100 % of control | T/C (dose: 50.0 mg/kg/injection, schedule: Q04DX003 (ip), vehicle: other): 100 % of control | T/C (dose: 100.0 mg/kg/injection, schedule: Q01DX009 (ip), vehicle: other): 109 % of control | T/C (dose: 100.0 mg/kg/injection, schedule: Q04DX003 (ip), vehicle: other): 100 % of control

c1ccc(C[n+]2cccc3ccccc32)cc1
T/C (dose: 6.25 mg/kg/injection, schedule: Q01DX009 (ip), vehicle: Klucel (hydroxypropylcellulose) (HPC)): 109 % of control | T/C (dose: 6.25 mg/kg/injection, schedule: Q04DX003 (ip), vehicle: saline): 100 % of control | T/C (dose: 12.5 mg/kg/injection, schedule: Q01DX009 (ip), vehicle: Klucel (hydroxypropylcellulose) (HPC)): 90 % of control | T/C (dose: 12.5 mg/kg/injection, schedule: Q04DX003 (ip), vehicle: saline): 100 % of control | T/C (dose: 25.0 mg/kg/injection, schedule: Q01DX009 (ip), vehicle: Klucel (hydroxypropylcellulose) (HPC)): 90 % of control | T/C [3]: 104 % of control

CC1(C)N=C(N)N=C(N)N1c1cccc(C#N)c1
T/C (dose: 22.0 mg/kg/injection, schedule: Q04DX003 (ip), vehicle: saline): 111 % of control and 118 % of control | T/C (dose: 33.0 mg/kg/injection, schedule: Q04DX003 (ip), vehicle: saline): 122 % of control and 123 % of control | T/C [4]: 118 % of control and 123 % of control | T/C (dose: 75.0 mg/kg/injection, schedule: Q04DX003 (ip), vehicle: saline): 95 % of control | T/C [5]: 116 % of control

COc1cccc2c1C(=O)c1c(O)c3c(c(O)c1C2=O)C[C@@](O)(/C(C)=N\O)C[C@@H]3OC1CC(N)C(O)C(C)O1 (some centres not stated)
T/C (dose: 1.56 mg/kg/injection, schedule: Q01DX009 (ip), vehicle: water): 112 % of control | T/C (dose: 3.12 mg/kg/injection, schedule: Q01DX009 (ip), vehicle: water): 105 % of control | T/C (dose: 6.25 mg/kg/injection, schedule: Q01DX009 (ip), vehicle: water): 161 % of control | T/C (dose: 12.5 mg/kg/injection, schedule: Q01DX009 (ip), vehicle: water): 210 % of control | T/C (dose: 25.0 mg/kg/injection, schedule: Q01DX009 (ip), vehicle: water): 103 % of control

NC(=O)c1c(Cl)nc(-c2cccc([N+](=O)[O-])c2)c([N+](=O)[O-])c1C(F)(F)F
T/C [6]: 87 % of control | T/C [7]: 115 % of control | T/C [8]: 112 % of control

CN(C)c1cc(F)c(C=O)cc1[N+](=O)[O-]
T/C [5]: 95 % of control | T/C (dose: 200.0 mg/kg/injection, schedule: Q04DX003 (ip), vehicle: saline): 100 % of control | T/C (dose: 400.0 mg/kg/injection, schedule: Q04DX003 (ip), vehicle: saline): 104 % of control

Oc1ccc(Nc2ccccc2)cc1
T/C (dose: 100.0 mg/kg/injection, schedule: Q01DX001 (ip), vehicle: saline): 95 % of control | T/C (dose: 200.0 mg/kg/injection, schedule: Q01DX001 (ip), vehicle: saline): 100 % of control | T/C (dose: 400.0 mg/kg/injection, schedule: Q01DX001 (ip), vehicle: saline): 100 % of control

CC(=O)c1cc(C)ccc1Sc1ccc(C)cc1
T/C [9]: 104 % of control | T/C [1]: 101 % of control | T/C [2]: 95 % of control

CS(=O)(=O)Nc1ccc(Nc2c3ccccc3nc3cc([N+](=O)[O-])ccc23)cc1
T/C (dose: 0.09 mg/kg/injection, schedule: Q04DX003 (ip), vehicle: saline with Tween-80): 91 % of control | T/C (dose: 0.18 mg/kg/injection, schedule: Q04DX003 (ip), vehicle: saline with Tween-80): 100 % of control | T/C (dose: 0.75 mg/kg/injection, schedule: Q01DX009 (ip), vehicle: saline with Tween-80): 169 % of control | T/C (dose: 1.5 mg/kg/injection, schedule: Q01DX009 (ip), vehicle: saline with Tween-80): 185 % of control | T/C (dose: 1.5 mg/kg/injection, schedule: Q04DX003 (ip), vehicle: saline with Tween-80): 150 % of control | T/C (dose: 3.0 mg/kg/injection, schedule: Q01DX009 (ip), vehicle: saline with Tween-80): 235 % of control | T/C (dose: 3.0 mg/kg/injection, schedule: Q04DX003 (ip), vehicle: saline with Tween-80): 162 % of control | T/C (dose: 6.0 mg/kg/injection, schedule: Q04DX003 (ip), vehicle: saline with Tween-80): 252 % of control and 183 % of control and 200 % of control | T/C (dose: 9.0 mg/kg/injection, schedule: Q04DX003 (ip), vehicle: saline with Tween-80): 285 % of control and 204 % of control | T/C (dose: 14.0 mg/kg/injection, schedule: Q04DX003 (ip), vehicle: saline with Tween-80): 250 % of control and 285 % of control | T/C (dose: 21.0 mg/kg/injection, schedule: Q04DX003 (ip), vehicle: saline with Tween-80): 250 % of control and 272 % of control and 157 % of control

CCOC(=O)CCN(CC1CC=CCC1)c1cc(O)c2c(c1O)C(=O)c1ccccc1C2=O (configuration not stated)
T/C [6]: 94 % of control | T/C [7]: 89 % of control | T/C [8]: 90 % of control

O=C(NC(=O)c1c(F)cccc1F)Nc1ccc(OCc2ccccc2)cc1
T/C [9]: 93 % of control | T/C [1]: 86 % of control

COC12C(COC(N)=O)C3=C(C(=O)C(C)=C(N)C3=O)N1CC1C2N1C (configuration not stated)
T/C (dose: 2.0 mg/kg/injection, schedule: Q01DX009 (ip), vehicle: saline): 163 % of control | T/C (dose: 2.0 mg/kg/injection, schedule: Q01DX010 (ip), vehicle: saline): 175 % of control | T/C (dose: 4.0 mg/kg/injection, schedule: Q01DX009 (ip), vehicle: saline): 179 % of control | T/C (dose: 4.0 mg/kg/injection, schedule: Q01DX010 (ip), vehicle: saline): 190 % of control | T/C (dose: 8.0 mg/kg/injection, schedule: Q01DX009 (ip), vehicle: saline): 198 % of control | T/C (dose: 8.0 mg/kg/injection, schedule: Q01DX010 (ip), vehicle: saline): 240 % of control | T/C (dose: 16.0 mg/kg/injection, schedule: Q01DX009 (ip), vehicle: saline): 88 % of control | T/C (dose: 16.0 mg/kg/injection, schedule: Q01DX010 (ip), vehicle: saline): 110 % of control

COc1ccc(C2=CCCC2)cc1
T/C (dose: 100.0 mg/kg/injection, schedule: Q04DX003 (ip), vehicle: Klucel (hydroxypropylcellulose) (HPC)): 108 % of control | T/C (dose: 200.0 mg/kg/injection, schedule: Q04DX003 (ip), vehicle: Klucel (hydroxypropylcellulose) (HPC)): 95 % of control | T/C (dose: 400.0 mg/kg/injection, schedule: Q04DX003 (ip), vehicle: Klucel (hydroxypropylcellulose) (HPC)): 100 % of control

CCN(CC)CCn1c(=O)c2ccccc2c2ccccc21
T/C [10]: 120 % of control | T/C [11]: 105 % of control | T/C [12]: 120 % of control

COc1ccc2c(=O)c3c(=O)c4c(=O)oc5ccccc5c4oc3oc2c1
T/C [9]: 88 % of control | T/C [1]: 88 % of control | T/C [2]: 88 % of control

NC(N)=NC(N)=Nc1cnccn1
T/C [11]: 110 % of control | T/C [3]: 100 % of control | T/C [12]: 120 % of control | T/C [4]: 100 % of control | T/C (dose: 100.0 mg/kg/injection, schedule: Q01DX009 (ip), vehicle: saline): 120 % of control | T/C [5]: 95 % of control

O=C(OC(=O)c1cccc(-c2ccccc2)c1)c1cccc(-c2ccccc2)c1
T/C (dose: 50.0 mg/kg/injection, schedule: Q01DX009 (ip), vehicle: Klucel (hydroxypropylcellulose) (HPC)): 104 % of control | T/C (dose: 100.0 mg/kg/injection, schedule: Q01DX009 (ip), vehicle: Klucel (hydroxypropylcellulose) (HPC)): 95 % of control | T/C (dose: 200.0 mg/kg/injection, schedule: Q01DX009 (ip), vehicle: Klucel (hydroxypropylcellulose) (HPC)): 95 % of control

COC1/C=C/OC2(C)Oc3c(C)c(O)c4c(O)c(c(/C=N/N5CCN(Cc6ccccc6)CC5)c(O)c4c3C2=O)NC(=O)C(C)=C/C=C/C(C)C(O)C(C)C(O)C(C)C(OC(C)=O)C1C (configuration not stated)
T/C [11]: 119 % of control | T/C [12]: 100 % of control

C[CH2][Sn]([CH2]C)([O]S(=O)(=O)CC12CCC(CC1=O)C2(C)C)[O]S(=O)(=O)CC12CCC(CC1=O)C2(C)C
T/C [10]: 173 % of control | T/C [11]: 195 % of control

CCOC(=O)C(Br)C(Br)C(=O)OCC (configuration not stated)
T/C [9]: 89 % of control | T/C [1]: 104 % of control

CN(C)c1ccc(NC(=O)C(c2ccccc2)c2ccccc2)cc1
T/C (dose: 50.0 mg/kg/injection, schedule: Q01DX005 (ip), vehicle: saline): 86 % of control | T/C (dose: 100.0 mg/kg/injection, schedule: Q01DX005 (ip), vehicle: saline): 90 % of control | T/C (dose: 200.0 mg/kg/injection, schedule: Q01DX005 (ip), vehicle: saline): 109 % of control
